This is an account of results in patent US20240173389A1, “Compositions and Methods For Reducing Immune Intolerance” (LAPIX THERAPEUTICS, INC., priority 2021, published 2024).

“Also recorded” adds a separate entry of the source.

For one assay, the system named is TLR3. As to the kind of experiment: TNF-α production by splenocytes in response to TLR3 ligand poly(I:C). Format: cell-based, C57BL/6 mice. Particulars: for TNF-α mean: 48 hours, OPLT 1.85 μg/ml, dexamethasone 100 μg/ml, rapamycin 625 μg/ml. The method, then: (§1) OPLT was dissolved in sterile PBS at 100 μM, and pH was adjusted to approximately 7.5. Splenocytes from naïve C57BL/6 mice were stained with CFSE, prepared, cultured, and dosed. Cells were seeded at 2×10^5 cells/well.
(§2) To evaluate the effects of OPLT on cytokine production by splenocytes in response to different TLR ligands, splenocytes were incubated with one of the following TLR ligands in triplicate: PGN, LPS, ODN CPG, dsRNA, or ssRNA, as per group assignment. Cells were then treated as follows: • Control: No treatment; • OPLT: Cells were dosed with 1.85 μg/ml; • Dexamethasone: Cells were dosed with 100 μg/ml; • Rapamycin: Cells were dosed with 625 μg/ml. Cells were incubated for 48 hours before collecting the supernatant for TNF-α analysis.
(§3) The supernatant was collected for TNF-α analysis by ELISA.

The test system of another assay is FoxP3+/CD4+ T-cells. In words: Splenocytes cultured 3 days with anti-CD3/anti-CD28 with or without OPLT, percent FoxP3+/CD4+ T-cells (Example 6). Format: cell-based, C57BL/6 mice. Particulars: 72-hour incubation. The method, then: as §1
To evaluate the effects of OPLT on FoxP3+/CD4+ T-cells, splenocytes were cultured for 3 days in presence of anti-CD3/anti-CD28 with and without 1.85 μg/ml (10 μM) OPLT. Cells were harvested at the end of a 72-hour incubation period and percent FoxP3+/CD4+ T-cells was determined by flow cytometry.

Assay [1] deals with RAW264.7 mouse monocyte macrophage cells. As to the kind of experiment: SAR screen in RAW 264.7 cells with FVIII antigen, TGF-β ELISA (Example 5). It counts as cell-based. Particulars: free compounds dosed in mM range. An excerpt:
RAW264.7 mouse monocyte macrophage cells were exposed to an increasing concentration of selected compounds in the presence of human plasma-derived FVIII as a model antigen protein. TNF-α and TGF-β production were monitored.
All molecules were formulated in RPMI media in aseptic conditions. The pH was adjusted to approximately 7.5 before dosing cells. 1,2-dimyristoyl-sn-glycero-3-phosphocholine (DM PC):PS liposomes were made at 70:30 molar ratio to make “PS” liposomes. The remaining liposomes were made by hydrating a DMPC lipid layer in PBS buffer containing a test compound to give a final molar ratio of 70:30 of DMPC:test compound.
RAW 264.7 cells were prepared, cultured, and dosed. Cells were seeded at 4×10^5 cells/well. OPLS, OPLT and L-homocysteic acid (LHA) were dosed at 100, 85, 70, 60, 50, 30, 10, 3, 1, 0.3, 0.1, 0.03 and 0.01 mM, or at 100, 85, 70, 60, 50, 30, 10, 3 and 1 mM, as indicated. O-Benzyl-L-serine (OBLS), S-phenyl-L-cysteine (SPLC), S-benzyl-L-cysteine (SBLC) and OBLT were dosed at 100, 85, 70, 60, 50, 30, 10, 3, 1, 0.3, 0.1, 0.03, 0.01, 0.003 and 0.001 μM. Finally, 100 μl of 40 μg/ml of FVIII as a sample antigen was added to each cell. LPS and free protein were used as positive and baseline controls, respectively. TNF-α and TGF-β ELISA were conducted as per the manufacturer's instructions (R & D Systems).
Background: An ELISA detects its analyte on a solid surface through an enzyme-linked reagent.

The subject of a further assay is TLR7. In words: TNF-α production by splenocytes in response to TLR7 ligand ssPolyU. Format: cell-based, C57BL/6 mice. Conditions: for TNF-α mean: 48 hours, OPLT 1.85 μg/ml, dexamethasone 100 μg/ml, rapamycin 625 μg/ml. The method, then:
as §1, §2, §3

For a further assay, the system named is FoxP3+/CD4+ T-cell. In words: Ex vivo flow cytometry of splenocytes for FoxP3+/CD4+ T-cells after AAV9 treatment period (Example 3). It counts as in vivo, mice. Particulars: SC QW 4 weeks with AAV9; OPLT 5 mg, liposomal OBLT 50 μg OBLT; one animal per group. The protocol:
OPLT and OBLT were dissolved in sterile PBS, and pH was adjusted to approximately 7.5. Liposomal OBLT was prepared using […]. AAV9 in PBS was used as a control. For treatment, AAV9 was co-mixed with OPLT or liposomal OBLT before administration, as per group assignment for each animal. AAV9 was administered with 5 mg of OPLT SC QW, 50 μg OBLT SC QW as liposomal OBLT or 7.2 μg OBLT PO QD as liposomal OBLT. For all SC groups, AAV9 was dosed at 10^6 particles/injection. For PO groups, AAV9 was dosed at 1.43×10^5 particles/injection.
Animals were injected with AAV9, AAV9+OPLT, or AAV9+liposomal OBLT SC QW for 4 weeks. Blood samples were collected for anti-AAV9 titer analysis after a one-week washout period from the last dose. For oral tolerance, animals were administered AAV9 or AAV9+liposomal OBLT PO, QD for 4 weeks. AAV9 was also administered SC QW to both groups during the treatment period. Blood samples were collected for anti-AAV9 titer analysis after a one-week washout period from the last dose.
One week after the last dose, one animal from each group was selected at random for ex-vivo analysis of the T-cell population. Spleens were collected and a single-cell suspension was prepared for cellular phenotyping by flow cytometry. Cells were stained and gated for CD4+ T-cells. FoxP3 expression level was evaluated for each animal.

A further assay relates to TLR4. In words: TNF-α production by splenocytes in response to TLR4 ligand LPS. Conditions: for TNF-α mean: 48 hours, OPLT 1.85 μg/ml, dexamethasone 100 μg/ml, rapamycin 625 μg/ml. It counts as cell-based, C57BL/6 mice. The protocol:
as §1, §2, §3

Another assay deals with Splenocytes. As to the kind of experiment: Splenocyte culture with anti-CD3/anti-CD28 without antigen, Foxp3+/CD4+ by flow cytometry (Example 4). Conditions: 100 μM, three days, anti-CD3/anti-CD28, absence of any antigen. It counts as cell-based. The method, then: Splenocytes were cultured for three days in presence of anti-CD3/anti-CD28 in presence of 100 μM PS or 100 μM OPLT in absence of any antigen.
On the technique in general: In flow cytometry, cells or beads pass a laser one at a time.

`N[C@@H](Cc1ccc(OP(=O)(O)O)cc1)C(=O)O` [OPLT, O-phospho-L-tyrosine]: the TNF-α mean in the assay on TLR3 (PolyI:C 0 ng/ml) was found to be 0 pg/mL; in the assay with TLR3 (PolyI:C 1 ng/ml, CTL 0), 0 pg/mL; in the assay on TLR3 (PolyI:C 10 ng/ml, CTL 109), 0 pg/mL; with TLR3 (PolyI:C 100 ng/ml, CTL 162), 0 pg/mL; in the assay on TLR7 (Poly U 0 ng/ml), 0 pg/mL; in the assay on TLR7 (Poly U 1 ng/ml, CTL 44), 36 pg/mL. The TNF-α mean in the assay on TLR7 (Poly U 10 ng/ml, CTL 51) stood at 40 pg/mL; in the assay with TLR7 (Poly U 100 ng/ml, CTL 229), 43 pg/mL; in the assay on TLR4 (LPS 0 ng/ml) it was 0 pg/mL; with TLR4 (LPS 1 ng/ml, CTL 143) it was 116 pg/mL; in the assay on TLR4 (LPS 10 ng/ml, CTL 840), 676 pg/mL; in the assay with TLR4 (LPS 100 ng/ml, CTL 1091), 838 pg/mL. Moreover, in the assay with TLR3 (compared to control at all doses), the “effect on splenocytes' TNF-α response to the TLR3 ligand poly(I:C) (in words)” value is on record as “abrogated splenocytes' response to the TLR3 ligand poly(I:C)”. Besides, in the assay on FoxP3+/CD4+ T-cells (10 μM (1.85 μg/ml) OPLT, anti-CD3/anti-CD28), the “increase in FoxP3+/CD4+ T-cells versus untreated cells” value is 118%. Further, in the assay with FoxP3+/CD4+ T-cells (10 μM OPLT, untreated 12.7%), the “percent FoxP3+/CD4+ T-cells” value is recorded as 27.7%. The “TGF-β production versus OPLS” value in assay [1] was “mimicked that of OPLS; also recorded: more potent inducers of TGF-β”. For the same molecule, in the assay on TLR7 (high dose of Poly U, statistically significant), the “effect on splenocytes' TNF-α response to the TLR7 ligand Poly U (in words)” value is listed as “reduced splenocytes' response to a high dose of the TLR7 ligand Poly U”. Also, in the assay with FoxP3+/CD4+ T-cell, the “increase in FoxP3+/CD4+ compared to the untreated group” value stood at 122%. In the assay on TLR4 (compared to control at all doses, 10 μM OPLT), the “effect on splenocytes' TNF-α response to the TLR4 ligand LPS (in words)” value is reported as “did not abrogate splenocytes' response to LPS”. Also, the “increase in Foxp3+/CD4+ compared to control” value with Splenocytes is on record as 118%.
